Reference: patent US8211877B2, “Compounds, compositions and methods for preventing neurodegeneration in acute and chronic injuries in the central nervous system” (Neurotech Pharmaceuticals Co., Ltd., priority 2000, dated 2012)

Legend:
[1] = test system: Mouse cortical cell cultures; test: Fe2+-induced free radical neurotoxicity in cortical cell cultures (LDH release); format: cell-based; conditions: for Protection against free radical neurotoxicity compared with parent compound: comparison with BAS or NBAS
Experimental: (§1) Primary cortical cell cultures from embryonic mice were prepared and used to examine neuroprotective action of compounds. Mouse cortical cell culture system has been extensively used to study mechanisms and pharmacological intervention of neuronal death in neurological diseases. In brief, mouse cerebral cortices were removed from brains of the 15 day-old-fetal mice, in accordance with a protocol approved by our institutional animal care committee. The neocortices were gently triturated and plated on 24 well plates (5 hemispheres/plate) precoated with 100 μg/ml poly-D-lysine and 4 μg/ml laminin. Plating media consist of Eagles minimal essential media (MEM, Earles salts, supplied glutamine-free) supplemented with 5% horse serum, 5% fetal bovine serum, 2 mM glutamine, and 21 mM glucose. Cultures were maintained at 37° C. in a humidified 5% CO2 atmosphere. After 7 days in vitro (DIV 7), cultures were shifted into a growth medium identical to the plating medium but lacking fetal serum. At DIV 7-9, 10 mM cytosine arabinofuranoside was included to halt overgrowth of glia. Mixed cultures of neurons and glia were then fed twice a week.
(§2) The percent neuronal death was normalized to the mean LDH value released 24 hr after continuous exposure 500 μM NMDA (=100) or a sham control (=0).
(§3) The neuroprotective action of 5-amino salicylic acid (AS) was examined in primary cortical cell cultures. Mouse cortical cell cultures (DIV 12-14) were exposed to 300μ M NMDA for 10 min (1a), continuously to 50μ M Fe^2+ (1b), or 300μ M Zn^2+ for 30 min (1c), alone or with inclusion of 10-300μ M 5-amino salicylic acid (AS). Neuronal death was analyzed 24 hr later by measuring levels of LDH released into the bathing medium, mean±SEM (n=9-12 (1a), n=4-8 (1b) or n=4 (1c) culture wells per condition), scaled to mean LDH efflux value 24 hr after sham wash (=0) and continuous exposure to 500μ M NMDA (=100).
(§4) Neuronal death was analyzed 24 hr later by measuring levels of LDH released into the medium, meant SEM (n=7-8 (2a), n=3-6 (2b), n=4 (2c), or n=4 (2d) culture wells per condition). FIG. 2. indicates significant difference from relevant control, at p<0.05 using ANOVA and Student-Neuman-Keuls test.
(§5) 5-(pentafluorobenzyl)amino salicylic acid (PBAS) was synthesized and tested against neuronal injuries. Mouse cortical cell cultures (DIV 12-14) were exposed to 300μ M NMDA for 10 min (8a), continuously to 50μ M Fe^2+ (8b) or 10 mM BSO (8c), or 300μ M Zn^2+ for 30 min (8d), alone or with inclusion of indicated doses of 5-(pentafluorobenzyl)amino salicylic acid (PBAS). Neuronal death was analyzed 24 hr later by measuring levels of LDH released into the medium, mean t SEM (n=11-16 (8a), n=3-6 (8b), n=4-11 (8c), or n=12 (8d) culture wells per condition).
(§6) Mouse cortical cell cultures (DIV 12-14) were exposed to 300μ M NMDA for 10 min (11a) or continuously to 50μ M Fe^2− (11b), alone or with inclusion of indicated doses of 5-(4-nitrobenzyl)-N-acetylamino-2-acetoxy ethylbenzoate (NNAAE). Neuronal death was analyzed 24 hr later by measuring levels of LDH released into the medium, mean±SEM (n=10-12 (11a), n=7-8 (11b), or n=4 (11c) culture wells per condition).
(§7) Mouse cortical cell cultures (DIV 12-14) were exposed to 300μ M NMDA for 10 min (15a) or continuously to 50μ M Fe^2− (15b), alone or with inclusion of indicated doses of 5-[3-(4-nitrophenyl)-n-propyl]aminosalicylic acid (NPPAA). Neuronal death was analyzed 24 hr later by measuring levels of LDH released into the medium, mean±SEM (n=4 (15a) or n=3-8 (15b) culture wells per condition).

[2] = Anti-oxidant effect: decrease in DPPH absorption at 517 nm; format: biochemical; conditions: for A517 nm (DPPH): 100 uM DPPH in ethanol, 30 min, mean±SEM
Experimental: To examine anti-oxidant effect, DPPH (2,2-diphenyl-1-picryl-hydrazyl radical), a stable free radical, was dissolved in ethanol to make a 100μ M solution. A compound was reacted with DPPH or ethanol. After incubation for 30 min, relative decrease in DPPH absorption at 517 nm was measured by a spectrophotometer.
AS or trolox was reacted with 100 uM DPPH dissolved in ethanol for 30 min. Anti-oxidant property was analyzed by measuring changes in the level of DPPH at 517 nm, mean±SEM (n=3 test tubes per condition), after subtracting background value resulting from ethanol alone.
Anti-oxidant property was analyzed by measuring changes in DPPH at 517 nm, mean±SEM (n=3 test tubes per condition), after subtracting background value resulting from ethanol alone.
NBAS was reacted with 100 uM DPPH dissolved in ethanol for 30 min. Anti-oxidant property was analyzed by measuring changes in DPPH at 517 nm, mean±SEM (n=3 test tubes per condition), after subtracting background value resulting from ethanol alone.
PBAS was reacted with 100 uM DPPH dissolved in ethanol for 30 min. Anti-oxidant property was analyzed by measuring changes in DPPH at 517 nm, mean±SEM (n=3 test tubes per condition), after subtracting background value resulting from ethanol alone.
NBAS derivatives (100μ M for each) were reacted with 100 μM DPPH dissolved in ethanol for 30 min. Anti-oxidant property was analyzed by measuring changes in DPPH at 517 nm, meant SEM (n=3 test tubes per condition), after subtracting background value resulting from ethanol alone.

[3] = test system: Mouse cortical cell cultures; test: NMDA-induced neuronal death in cortical cell cultures (LDH release); format: cell-based; conditions: 300 μM NMDA 10 min
Experimental: as §1, §2, §3, §4, §5, §6, §7

[4] = test system: Mouse cortical cell cultures; test: BSO-induced free radical neurotoxicity in cortical cell cultures (LDH release); format: cell-based; conditions: 10 mM BSO continuously; compound 1 μM
Experimental: as §1, with “After 7 days in vitro (DIV 7), cultures were shifted into a growth medium identical to the plating medium but lacking fetal serum. At DIV 7-9, 10 mM cytosine arabinofuranoside was included to halt overgrowth of glia. Mixed cultures of neurons and glia were then fed twice a week.” left out
(§8) Neuronal death was analyzed 24 hr later by measuring levels of LDH released into the medium, meant SEM (n=7-8 (2a), n=3-6 (2b), n=4 (2c), or n=4 (2d) culture wells per condition). […]
5-(pentafluorobenzyl)amino salicylic acid (PBAS) was synthesized and tested against neuronal injuries. […] Neuronal death was analyzed 24 hr later by measuring levels of LDH released into the medium, mean t SEM (n=11-16 (8a), n=3-6 (8b), n=4-11 (8c), or n=12 (8d) culture wells per condition).

[5] = test system: Mouse cortical cell cultures; test: Zn2+ neurotoxicity in cortical cell cultures (LDH release); format: cell-based; conditions: 300 μM Zn2+ 30 min
Experimental: as §1, with “Cultures were maintained at 37° C. in a humidified 5% CO2 atmosphere. After 7 days in vitro (DIV 7), cultures were shifted into a growth medium identical to the plating medium but lacking fetal serum. At DIV 7-9, 10 mM cytosine arabinofuranoside was included to halt overgrowth of glia. Mixed cultures of neurons and glia were then fed twice a week.” left out
The neuroprotective action of 5-amino salicylic acid (AS) was examined in primary cortical cell cultures. […] Neuronal death was analyzed 24 hr later by measuring levels of LDH released into the bathing medium, mean±SEM (n=9-12 (1a), n=4-8 (1b) or n=4 (1c) culture wells per condition), scaled to mean LDH efflux value 24 hr after sham wash (=0) and continuous exposure to 500μ M NMDA (=100).
as §8

[6] = 50 μM Fe2+ continuously, compound 10 μM
[7] = 50 μM Fe2+ continuously, compound 1 μM

CCOC(=O)c1cc(NCc2ccc([N+](=O)[O-])cc2)ccc1O [NAHE, 5-(4-nitrobenzyl)amino-2-hydroxy ethylbenzoate]
Effect on Fe2+-induced neuronal death, in words [1, 6]: blocked

CCOC(=O)c1cc(N(Cc2ccc([N+](=O)[O-])cc2)C(C)=O)ccc1O [NNAHE, 5-(4-nitrobenzyl)-N-acetylamino-2-hydroxy ethylbenzoate]
Effect on Fe2+-induced neuronal death, in words [1, 6]: blocked

O=C(O)c1cc(NCCc2ccc([N+](=O)[O-])cc2)ccc1O [NPAA, 5-[2-(4-nitrophenyl)-ethyl]aminosalicylic acid]
A517 nm (DPPH) ([2]; compound 100 μM): 0.09 ± 0.01
Effect on NMDA-induced neuronal death, in words ([3]; compound 300 μM): slightly reduced
Effect on Fe2+-induced neuronal death, in words [1, 7]: complete blockade
Protection against free radical neurotoxicity compared with parent compound [1]: more effective than NBAS

O=C(O)c1cc(NCCCc2ccc([N+](=O)[O-])cc2)ccc1O [NPPAA, 5-[3-(4-nitrophenyl)-n-propyl]aminosalicylic acid]
A517 nm (DPPH) ([2]; compound 100 μM): 0.09 ± 0.02
Effect on NMDA-induced neuronal death, in words ([3]; compound 300 μM): slightly reduced
Effect on Fe2+-induced neuronal death, in words [1, 7]: complete blockade
Protection against free radical neurotoxicity compared with parent compound [1]: more effective than NBAS

O=C(O)c1cc(NCc2ccc([N+](=O)[O-])cc2)ccc1O [NBAS, 5-(4-nitrobenzyl)aminosalicylic acid]
A517 nm (DPPH) ([2]; compound 10 μM): 0.37 ± 0.1
A517 nm (DPPH) ([2]; compound 30 μM): 0.04 ± 0.01
A517 nm (DPPH) ([2]; compound 100 μM): 0.04 ± 0.00
A517 nm (DPPH) ([2]; compound 300 μM): 0.04 ± 0.00

CCOC(=O)c1cc(N(Cc2ccc([N+](=O)[O-])cc2)C(C)=O)ccc1OC(C)=O [NNAAE, 5-(4-nitrobenzyl)-N-acetylamino-2-acetoxy ethylbenzoate]
Effect on Fe2+-induced neuronal death, in words [1, 6]: blocked

Cc1c(C)c2c(c(C)c1O)CCC(C)(C(=O)O)O2 (stereo not drawn) [Trolox, reference compound]
A517 nm (DPPH) ([2]; compound 3 μM): 1.08 ± 0.1
A517 nm (DPPH) ([2]; compound 10 μM): 0.89 ± 0.08
A517 nm (DPPH) ([2]; compound 30 μM): 0.39 ± 0.06
A517 nm (DPPH) ([2]; compound 100 μM): 0.05 ± 0.01
A517 nm (DPPH) ([2]; compound 300 μM): 0.03 ± 0.01

O=C(O)c1cc(NS(=O)(=O)c2ccc([N+](=O)[O-])cc2)ccc1O [NBSAA, 5-(4-nitrobenzenesulfonyl)aminosalicylic acid]
A517 nm (DPPH) ([2]; compound 100 μM): 0.15 ± 0.05
Effect on NMDA-induced neuronal death, in words ([3]; compound 300 μM): markedly reduced
Effect on NMDA-induced neuronal death, in words ([3]; compound 30-300 μM): attenuated NMDA neurotoxicity in a dose-dependent manner
Protection against free radical neurotoxicity compared with parent compound [1]: weaker than NBAS

O=C(O)c1cc(NCc2c(F)c(F)c(F)c(F)c2F)ccc1O [PBAS, 5-(pentafluorobenzyl)aminosalicylic acid]
Anti-oxidant property against DPPH, in words ([2]; DPPH, a stable free radical): reduced levels of DPPH
A517 nm (DPPH) ([2]; compound 1 μM): 1.07 ± 0.07
A517 nm (DPPH) ([2]; compound 3 μM): 1.01 ± 0.07
A517 nm (DPPH) ([2]; compound 10 μM): 0.71 ± 0.09
A517 nm (DPPH) ([2]; compound 30 μM): 0.21 ± 0.04
A517 nm (DPPH) ([2]; compound 100 μM): 0.15 ± 0.02
A517 nm (DPPH) ([2]; compound 300 μM): 0.16 ± 0.01
Reduction of NMDA-induced neuronal death ([3]; compound 300 μM, LDH 24 hr later): ~65%
Effect on NMDA-induced neuronal death, in words ([3]; compound 100-1000 μM): reduced NMDA-induced neuronal death in a dose-dependent manner
Effect on NMDA-induced neuronal death, in words ([3]; compound up to 1 mM): completely blocked
Effect on Fe2+-induced neuronal death, in words [1, 7]: significantly reduced
Effect on Fe2+-induced neuronal death, in words ([1]; 50 μM Fe2+ continuously, compound 3 μM): near completely blocked
Effect on BSO-induced neuronal death, in words [4]: blocked
Effect on Zn2+-induced neuronal death, in words ([5]; compound 100-300 μM): attenuated

Nc1ccc(O)c(C(=O)O)c1 [AS, 5-amino salicylic acid, reference compound]
Effect on NMDA-induced neuronal death, in words ([3]; compound 10-300 μM, LDH 24 hr later): did not attenuate
Effect on Fe2+-induced neuronal death, in words ([1]; 50 μM Fe2+ continuously 24 hr, compound 10-100 μM): dose-dependently prevented
Effect on Zn2+-induced neuronal death, in words ([5]; compound 10-300 μM during and post Zn2+ treatment): not reduced

O=C(Nc1ccc(O)c(C(=O)O)c1)c1ccc([N+](=O)[O-])cc1 [NBAA, 5-(4-nitrobenzoyl)aminosalicylic acid]
A517 nm (DPPH) ([2]; compound 100 μM): 0.42 ± 0.22
Effect on NMDA-induced neuronal death, in words ([3]; compound 30 μM): significantly attenuated
Effect on NMDA-induced neuronal death, in words ([3]; compound 30-300 μM): not further increased
Protection against free radical neurotoxicity compared with parent compound [1]: weaker than NBAS
